What was measured:
Format in all cases: in vivo
Setaria viridis (SETVI) [1] = test: Herbicidal pre-emergence action (A), 1280 g/ha; settings: visual grading after ca. 3 weeks vs untreated controls
Source text: (§1) ABUTH: Abutilon theophrasti AGSTE: Agrostis tenuis ALOMY: Alopecurus myosuroides AMARE Amaranthus retroflexus DIGSA: Digitaria sanguinalis ECHCG: Echinochloa crus-galli KCHSC: Kochia scoparia LOLRI: Lolium rigidum MATIN: Matricaria inodora POAAN: Poa annua POLCO: Polygonum convolvulus SETVI: Setaria viridis STEME: Stellaria media VERPE: Veronica persica VIOTR: Viola tricolor
(§2) Seeds of mono- and dicotyledonous weed plants were sown in plastic pots (double sowings with one species of mono- and one species of dicotyledonous weed plants per pot), in sandy loam, and covered with soil. The compounds according to the invention, formulated in the form of wettable powders (WP) or as emulsifiable concentrates (EC), were applied to the surface of the covering soil as aqueous suspension or emulsion, with the addition of 0.5% of an additive, at an application rate of 600 l of water per hectare (converted). Following treatment, the pots were placed in a greenhouse and kept under optimum growth conditions for the test plants. The visual grading of the damage to the test plants was carried out after ca. 3 weeks in comparison to untreated controls (herbicidal effect in percent (%): 100% effect=plants have died off, 0% effect=as control plants).
(§3) Tables A1 to A12, below, show the effects of selected compounds of the general formula (I) according to table 1 on various harmful plants and an application rate corresponding to 1280 g/ha obtained by the experimental procedure mentioned above.

[2] = test system: Matricaria inodora (MATIN); test: Herbicidal pre-emergence action (A), 1280 g/ha; settings: visual grading after ca. 3 weeks vs untreated controls
Source text: as §1, §2, §3

Stellaria media (STEME) [3] = test: Herbicidal pre-emergence action (A), 1280 g/ha; settings: visual grading after ca. 3 weeks vs untreated controls
Source text: as §1, §2, §3

[4] = test system: Echinochloa crus-galli (ECHCG); test: Herbicidal pre-emergence action (A), 1280 g/ha; settings: visual grading after ca. 3 weeks vs untreated controls, 100% = plants have died off, 0% = as control plants
Source text: as §1, §2, §3

Setaria viridis (SETVI) [5] = test: Herbicidal post-emergence action (B), 1280 g/ha; settings: rated visually after about 3 weeks vs untreated controls
Source text: as §1
(§4) Seeds of mono- and dicotyledonous weed plants were placed in plastic pots in sandy loam soil (doubly sown with in each case one species of mono- or dicotyledonous weed plants per pot), covered with soil and cultivated in a greenhouse under controlled growth conditions. 2 to 3 weeks after sowing, the test plants were treated at the one-leaf stage. The compounds of the invention, formulated in the form of wettable powders (WP) or as emulsion concentrates (EC), were applied onto the green parts of the plants as aqueous suspension or emulsion with addition of 0.5% additive at a water application rate of 600 liters per hectare (converted). After the test plants had been kept in the greenhouse under optimum growth conditions for about 3 weeks, the activity of the preparations was rated visually in comparison to untreated controls. For example, 100% activity=the plants have died, 0% activity=like control plants.
(§5) Tables B1 to B12, below, show the effects of selected compounds of the general formula (I) according to table 1 on various harmful plants and an application rate corresponding to 1280 g/ha obtained by the experimental procedure mentioned above.

[6] = test system: Amaranthus retroflexus (AMARE); test: Herbicidal post-emergence action (B), 1280 g/ha; settings: rated visually after about 3 weeks vs untreated controls
Source text: as §1, §4, §5

[7] = test system: Kochia scoparia (KCHSC; Bassia scoparia); test: Herbicidal pre-emergence action (A), 1280 g/ha; settings: visual grading after ca. 3 weeks vs untreated controls
Source text: as §1, §2, §3

[8] = test system: Alopecurus myosuroides (ALOMY); test: Herbicidal pre-emergence action (A), 1280 g/ha; settings: visual grading after ca. 3 weeks vs untreated controls, 100% = plants have died off, 0% = as control plants
Source text: as §1, §2, §3

Poa annua (POAAN) [9] = test: Herbicidal pre-emergence action (A), 1280 g/ha; settings: visual grading after ca. 3 weeks vs untreated controls, 100% = plants have died off, 0% = as control plants
Source text: as §1, §2, §3

Lolium rigidum (LOLRI) = test: Herbicidal pre-emergence action (A), 1280 g/ha; settings: visual grading after ca. 3 weeks vs untreated controls, 100% = plants have died off, 0% = as control plants
Source text: as §1, §2, §3

[10] = test system: Amaranthus retroflexus (AMARE); test: Herbicidal pre-emergence action (A), 1280 g/ha; settings: visual grading after ca. 3 weeks vs untreated controls
Source text: as §1, §2, §3

Veronica persica (VERPE) [11] = test: Herbicidal pre-emergence action (A), 1280 g/ha; settings: visual grading after ca. 3 weeks vs untreated controls
Source text: as §1, §2, §3

[12] = test system: Abutilon theophrasti (ABUTH); test: Herbicidal post-emergence action (B), 1280 g/ha; settings: rated visually after about 3 weeks vs untreated controls
Source text: as §1, §4, §5

[13] = test system: Kochia scoparia (KCHSC; Bassia scoparia); test: Herbicidal post-emergence action (B), 1280 g/ha
Source text: as §1, §4, §5

[14] = test system: Alopecurus myosuroides (ALOMY); test: Herbicidal post-emergence action (B), 1280 g/ha; settings: rated visually after about 3 weeks vs untreated controls
Source text: as §1, §4, §5

[15] = test system: Echinochloa crus-galli (ECHCG); test: Herbicidal post-emergence action (B), 1280 g/ha; settings: rated visually after about 3 weeks vs untreated controls
Source text: as §1, §4, §5

Poa annua (POAAN) [16] = test: Herbicidal post-emergence action (B), 1280 g/ha; settings: rated visually after about 3 weeks vs untreated controls
Source text: as §1, §4, §5

Veronica persica (VERPE) [17] = test: Herbicidal post-emergence action (B), 1280 g/ha
Source text: as §1, §4, §5

[18] = test system: Digitaria sanguinalis (DIGSA); test: Herbicidal pre-emergence action (A), 1280 g/ha; settings: visual grading after ca. 3 weeks vs untreated controls, 100% = plants have died off, 0% = as control plants
Source text: as §1, §2, §3

Stellaria media (STEME) [19] = test: Herbicidal post-emergence action (B), 1280 g/ha
Source text: as §1, §4, §5

[20] = test system: Digitaria sanguinalis (DIGSA); test: Herbicidal post-emergence action (B), 1280 g/ha; settings: rated visually after about 3 weeks vs untreated controls
Source text: as §1, §4, §5

Setaria viridis (SETVI) [21] = test: Herbicidal pre-emergence action (C), 320 g/ha; settings: ca. 3 weeks
Source text: as §1
Seeds of mono- and dicotyledonous weed plants and crop plants were sown, in plastic or organic planting pots, in sandy loam and covered with soil. The compounds according to the invention, formulated in the form of wettable powders (WP) or as emulsifiable concentrates (EC), were applied to the surface of the covering soil as aqueous suspension or emulsion, with the addition of 0.5% of an additive, at an application rate of 600 l of water/ha (converted).
Following treatment, the pots were placed in a greenhouse and kept under optimum growth conditions for the test plants. The visual grading of the damage to the test plants was carried out after ca. 3 weeks in comparison to untreated controls (herbicidal effect in percent (%): 100% effect=plants have died off, 0% effect=as control plants).
Tables C1 to C13 below show the effects of selected compounds of the general formula (I) according to table 1 on various harmful plants and an application rate corresponding to 320 g/ha obtained by the experimental procedure mentioned above.

Row | SMILES | herbicidal effect SETVI (Setaria viridis (SETVI) [1]) [%] | herbicidal effect MATIN [2] [%] | herbicidal effect STEME (Stellaria media (STEME) [3]) [%] | ECHCG, herbicidal effect in percent (%) [4] [%] | herbicidal activity SETVI (Setaria viridis (SETVI) [5]) [%] | herbicidal activity AMARE [6] [%] | herbicidal effect KCHSC [7] [%] | ALOMY, herbicidal effect in percent (%) [8] [%] | POAAN, herbicidal effect in percent (%) (Poa annua (POAAN) [9]) | LOLRI, herbicidal effect in percent (%) (Lolium rigidum (LOLRI)) | herbicidal effect AMARE [10] [%] | herbicidal effect VERPE (Veronica persica (VERPE) [11]) [%] | herbicidal activity ABUTH [12] [%] | herbicidal effect KCHSC [13] [%] | herbicidal activity ALOMY [14] [%] | herbicidal activity POAAN (Poa annua (POAAN) [16]) [%] | herbicidal effect VERPE (Veronica persica (VERPE) [17]) [%] | DIGSA, herbicidal effect in percent (%) [18] [%] | herbicidal effect STEME (Stellaria media (STEME) [19]) [%] | herbicidal activity DIGSA [20] [%] | also measured
1 | Cc1nc2nc(-c3ccccc3F)c(C)cc2s1 [Example I-001] | 100 | 90 | 90 | 100 | 90 | 90 |  |  |  |  |  |  |  |  |  |  |  |  |  |  | 
2 | Fc1cc(F)c(-c2nc3ncsc3cc2Cl)c(F)c1 [Example I-035] | 100 | 90 | 90 | 100 | 90 | 100 | 90 | 90 | 100 | 100 | 90 | 90 | 90 | 90 | 90 | 90 | 90 |  |  |  | herbicidal activity ECHCG [15]: 90%
3 | CCc1cc2scnc2nc1-c1ccccc1C(F)(F)F [Example I-049] | 100 | 90 | 100 | 100 |  | 100 | 100 | 100 | 100 | 100 | 90 | 100 |  | 100 |  | 100 | 90 | 90 | 90 | 90 | 
4 | Fc1ccc(-c2ccc3scnc3n2)cc1 [Example I-074, 5-(4-fluorophenyl)thiazolo[4,5-b]pyridine] | 100 |  |  | 100 |  | 90 |  |  | 100 |  | 90 |  |  | 90 |  |  |  | 100 | 90 | 100 | 
5 | Cc1cccc(F)c1-c1nc2ncsc2cc1Br [Example I-088] | 100 | 90 | 90 | 100 | 90 | 100 | 90 | 100 | 100 | 100 | 90 |  | 90 | 100 |  |  | 100 |  | 100 |  | 
6 | Cc1cc2sc([S+](C)[O-])nc2nc1-c1ccccc1 (centres unmarked) [Example I-092] |  |  | 90 |  |  | 100 |  |  | 90 |  | 90 | 90 | 90 | 100 |  |  | 90 |  |  | 100 | 
7 | CCc1cc2scnc2nc1C1=CCCCC1 [Example I-145] | 100 | 90 | 90 | 100 |  | 100 | 90 | 100 | 100 | 100 | 100 | 100 |  | 90 | 100 |  | 100 | 100 | 100 | 100 | herbicidal effect SETVI (Setaria viridis (SETVI) [21]): 90%; herbicidal activity ECHCG [15]: 100%
8 | CCc1cc2scnc2nc1C12CCCCC1O2 (centres unmarked) [Example I-152] | 100 | 90 | 90 | 100 |  | 100 | 100 |  | 100 | 100 | 90 | 90 | 90 | 90 | 100 | 100 | 100 | 100 |  |  | 
9 | Cc1cc2sc(S)nc2nc1-c1cccc(F)c1 [Example I-159, 5-(3-fluorophenyl)-6-methyl-thiazolo[4,5-b]pyridine-2-thiol] | 90 |  |  |  |  |  |  |  |  |  |  |  | 90 | 90 |  |  |  |  |  | 100 | 
10 | CCc1cc2sc(S)nc2nc1-c1ccccc1F [Example I-165] | 100 |  | 90 |  |  |  |  | 90 | 100 |  | 90 | 90 |  | 90 |  |  | 90 |  |  | 100 | 

Reference: patent US20230151025A1, “SUBSTITUTED THIAZOLOPYRIDINES, SALTS THEREOF AND THEIR USE AS HERBICIDALLY ACTIVE SUBSTANCES” (Bayer Aktiengesellschaft, priority 2020, published 2023)
